Source: patent publication US7985832B2, “Antimicrobial cathelicidin peptides” (Kansas State University Research Foundation, priority 2005, dated 2011)
Ends that are not written are not given here.

Assays:
chicken erythrocytes = type: cell-based
Procedure: FIG. 9. Hemolytic Activity of Canine Cathelicidin. The assays were performed with chicken red blood cells as previously described (49). The data shown represent the mean of duplicate values from two independent experiments.
(§1) Hemolytic activity of K9CATH was determined (Skerlavag, FEBS Lett., 463:58 (1999); Yu et al., J. Pept. Res., 60:1 (2002)). Briefly, 4 mL of canine blood was collected in EDTA-containing blood collection tubes (Becton Dickinson, Franklin Lakes, N.J.). Whole blood was then centrifuged at 10,000×g for 1 minute at room temperature. Plasma was discarded (supernatant) and erythrocytes were washed twice with PBS, re-suspended to a 0.5% (vol/vol) solution in PBS, and 90 μL dispensed into 96-well microtiter plates. Different concentrations of K9CATH dissolved in 0.01% acetic acid were added in duplicate to dog cells and incubated at 37° C. for 2 hours. Following centrifugation at 8000×g for 10 minutes, supernatants were transferred to new 96-well microtiter plates and monitored by measuring the absorbance at 405 nm for released hemoglobin. Controls for 0 and 100% hemolysis consisted of cells suspended in PBS only and in 1.0% Triton X-100, respectively. Percentage of hemolysis (%) was calculated as [(OD415 nm, peptide solution−OD415 nm, PBS only)/(OD415 nm, 1% Triton X-100−OD 415 nm, PBS only)]×100. […]

Escherichia coli = type: cell-based
Source text: (§2) Microorganisms against which a polypeptide of the invention is active include prokaryotic and eukaryotic cells such as Gram-negative and Gram-positive bacteria, yeast and protozoa. Non-limiting examples include Listeria monocytogenes, Staphylococcus aureus, Escherichia coli, Klebsiella pneumoniae, Salmonella typhimurium, Pseudomonas aeruginosa, Proteus mirabilis, Salmonella enteritidis, Neisseria gonorrhoeae, Ureaplasma canigenitalium, Ureaplasma urealyticum, Candida albicans, Trichomonas vaginalis, Treponema pallidum or Chlamydia trachomatis, or a spoilage organism. […] MIC antimicrobial activity refers to complete inhibition of the growth of a microorganism, as judged by the naked eye, after a selected period of incubation. The method used to determine MIC is that set forth in Sang et al., Infection and Immunity, 2611-20 (May, 2005).
(§3) Microorganisms evaluated were: Candida albicans ATCC 11006 and 14053, Escherichia coli ATCC 25922, 700336, 700378, and BAA-457, Klebsiella pneumoniae ATCC 10031, Listeria monocytogenes ATCC 19155, Proteus mirabilis ATCC 12453, Pseudomonas aeruginosa ATCC 10145, Salmonella Enteritidis ATCC 13076, Salmonella Typhimurium ATCC 13311, Staphylococcus aureus ATCC 10832, Ureaplasma canigenitalium ATCC 51252, and Ureaplasma urealyticum ATCC 27619. C. albicans was grown overnight (35° C.) on potato dextrose agar and managed according to NCCSL standards (Pfaller et al., Manual NCCLS #M27-A2, 6th ed., Wayne, Pa. (2002)). U. canigenitalium and U urealyticum were stored at −20° C. in urea broth 10B (per ATCC specifications) and thawed at 5° C. the night prior to assay. All other bacteria were maintained on trypticase soy agar (Difco, Detroit, Mich.) plates at 37° C. Mid-logarithmic phase bacteria were grown by transferring single cell colonies into trypticase soy broth (Difco), followed by incubation and homogenization for 3 hours at 37° C. Bacterial pellets were obtained after centrifugation for 10 minutes at 4° C. at 900×g, and washed once, followed by suspension in 10 mM sodium phosphate buffer (PB, pH 7.4, [Na+]=17.83 mM). Initial bacterial concentrations were determined (Ferraro et al., Manual NCCLS #M7-A6, 6th ed., Wayne, Pa. (2003)). Initial bacterial populations of 10^8 CFU/mL were obtained at an optical density (OD) of 0.1 at 600 nm. C. albicans were suspended in 10 mM PB to a McFarland standard of 0.5 for an initial 10^8 CFU/ml following NCCLS standards (Pfaller et al., Manual NCCLS #M27-A2, 6th ed., Wayne, Pa. (2002)), except that the recommended 0.85% saline solution was replaced with 10 mM PB. All microbial serial dilutions were performed in 10 mM PB to obtain 10^3 CFU/mL working dilutions.
(§4) A modified broth microdilution method (Pfaller et al., Manual NCCLS #M27-A2, 6th ed., Wayne, Pa. (2002); Ferraro et al., Manual NCCLS #M7-A6, 6th ed., Wayne, Pa. (2003)) was used to determine the antimicrobial activity of K9CATH (Sang et al., Infect. Immun., 73:2611 (2005)). Briefly, 50 μL of the K9CATH working stocks were added to the wells of a microtiter plate in which 25 μL of 30 mM sodium PB (pH 7.4, [Na+]=53.49 mM), 25 μL H2O, and 50 μL of the microbial suspension had been previously combined. Microtiter plates were incubated at 37° C. for 2 hours in a shaking incubator (100 RPM), followed by the addition of 150 μL of the corresponding nutritive broth. Antimicrobial activity was determined by establishing the minimal inhibitory concentrations (MIC), defined as the lowest concentration in which microbial growth was prevented, as indicated by the lack of turbidity or color change in the medium (urea broth 10B) after 24 hours of incubation at 37° C. Treated gonorrheal suspension (50 μL) was spot-plated on chocolate agar, and the MIC was defined as the lowest concentration in which no colonies developed after 24 hours of incubation at 37° C. in 5% CO2. […]

Pseudomonas aeruginosa = type: cell-based
Source text: as §2, §3, §4

Ureaplasma urealyticum = type: cell-based
Source text: as §2, §3, §4

Salmonella Typhimurium = type: cell-based
Source text: as §2, §3, §4

Klebsiella pneumoniae = type: cell-based
Source text: as §2, §3, §4

Listeria monocytogenes = type: cell-based
Source text: as §2, §3, §4

Salmonella Enteritidis = type: cell-based
Source text: as §2, §3, §4

Proteus mirabilis = type: cell-based
Source text: as §2, §3, §4

dog erythrocytes = type: cell-based
Procedure: as §1, with “only)]×100. The N-terminal 18 amino acid segment of bovine myeloid antimicrobial peptide 28 (BMAP-28(1-18)) (Skerlavaj et al., J. Biol. Chem., 271:28375 (1996); Yu et al., J. Pept. Res., 60:1 (2002); Risso et al., Cell. Immunol., 189:107 (1998)) was used as a positive control.” for “only)]×100.”

skin S. aureus = conditions: literature (Murakami et al.); cited from earlier work

Row | Substance | lower in vitro hemolytic activity compared to BMAP-18 (chicken erythrocytes) | MIC (Escherichia coli) [µM] | MIC (Pseudomonas aeruginosa) [µM] | MIC (Ureaplasma urealyticum) [µM] | MIC (Salmonella Typhimurium) [µM] | MIC (Klebsiella pneumoniae) [µM] | MIC (Listeria monocytogenes) [µM] | MIC (Salmonella Enteritidis) [µM] | MIC (Proteus mirabilis) [µM] | lower in vitro hemolytic activity compared to BMAP-18 (dog erythrocytes) | concentration inhibiting skin S. aureus (skin S. aureus) [µM]
1 | RLKELITTGGQKIGEKIRRIGQRIKDFFKNLQPREEKS [K9CATH] | 10-20 fold | 1.11 | 1.11 | 44.33 | 1.11 | 1.11 | 0.44 | 0.44 | 1.11 | 10-20 fold | –
2 | LL-37: human cathelicidin antimicrobial peptide (LLGDFFRKSKEKIGKEFKRIVQRIKDFLRNLVPRTES; Antibacterial peptide LL-37; UniProt P49913 134-170, looked up) | – | – | – | – | – | – | – | – | – | – | > 64
